According to EP4578856A1, “HETEROCYCLIC COMPOUND” (Ubience Inc., priority 2022, dated 2024):

Biological target: ROCK2 protein (Homo sapiens, UniProt O75116)
Test: Degradation inducing activity of ROCK2 protein in HUVEC cells, Western blotting (Simple Western JESS)
Assay type: cell-based
Parameters: endogenous in cells; host or cells: HUVEC (ATCC CRL-1730)
Details: HUVEC, 24 h; for inhibition at 1 µM: degradation rate at 1 µM; for inhibition at 10 µM: degradation rate at 10 µM
Method in brief: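 HUVEC cells treated 24 h with compound at 10 µM or 1 µM, then lysed; ROCK2 quantified by capillary Western (Simple Western JESS) using rabbit mAb D1B1, normalized to total loaded protein. Degradation rate (%) calculated relative to DMSO control set at 100%, binned A ≥75%, B 50–75%, C 25–50%, D <25%.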

ROCK2 protein, sequence (O75116 whole entry): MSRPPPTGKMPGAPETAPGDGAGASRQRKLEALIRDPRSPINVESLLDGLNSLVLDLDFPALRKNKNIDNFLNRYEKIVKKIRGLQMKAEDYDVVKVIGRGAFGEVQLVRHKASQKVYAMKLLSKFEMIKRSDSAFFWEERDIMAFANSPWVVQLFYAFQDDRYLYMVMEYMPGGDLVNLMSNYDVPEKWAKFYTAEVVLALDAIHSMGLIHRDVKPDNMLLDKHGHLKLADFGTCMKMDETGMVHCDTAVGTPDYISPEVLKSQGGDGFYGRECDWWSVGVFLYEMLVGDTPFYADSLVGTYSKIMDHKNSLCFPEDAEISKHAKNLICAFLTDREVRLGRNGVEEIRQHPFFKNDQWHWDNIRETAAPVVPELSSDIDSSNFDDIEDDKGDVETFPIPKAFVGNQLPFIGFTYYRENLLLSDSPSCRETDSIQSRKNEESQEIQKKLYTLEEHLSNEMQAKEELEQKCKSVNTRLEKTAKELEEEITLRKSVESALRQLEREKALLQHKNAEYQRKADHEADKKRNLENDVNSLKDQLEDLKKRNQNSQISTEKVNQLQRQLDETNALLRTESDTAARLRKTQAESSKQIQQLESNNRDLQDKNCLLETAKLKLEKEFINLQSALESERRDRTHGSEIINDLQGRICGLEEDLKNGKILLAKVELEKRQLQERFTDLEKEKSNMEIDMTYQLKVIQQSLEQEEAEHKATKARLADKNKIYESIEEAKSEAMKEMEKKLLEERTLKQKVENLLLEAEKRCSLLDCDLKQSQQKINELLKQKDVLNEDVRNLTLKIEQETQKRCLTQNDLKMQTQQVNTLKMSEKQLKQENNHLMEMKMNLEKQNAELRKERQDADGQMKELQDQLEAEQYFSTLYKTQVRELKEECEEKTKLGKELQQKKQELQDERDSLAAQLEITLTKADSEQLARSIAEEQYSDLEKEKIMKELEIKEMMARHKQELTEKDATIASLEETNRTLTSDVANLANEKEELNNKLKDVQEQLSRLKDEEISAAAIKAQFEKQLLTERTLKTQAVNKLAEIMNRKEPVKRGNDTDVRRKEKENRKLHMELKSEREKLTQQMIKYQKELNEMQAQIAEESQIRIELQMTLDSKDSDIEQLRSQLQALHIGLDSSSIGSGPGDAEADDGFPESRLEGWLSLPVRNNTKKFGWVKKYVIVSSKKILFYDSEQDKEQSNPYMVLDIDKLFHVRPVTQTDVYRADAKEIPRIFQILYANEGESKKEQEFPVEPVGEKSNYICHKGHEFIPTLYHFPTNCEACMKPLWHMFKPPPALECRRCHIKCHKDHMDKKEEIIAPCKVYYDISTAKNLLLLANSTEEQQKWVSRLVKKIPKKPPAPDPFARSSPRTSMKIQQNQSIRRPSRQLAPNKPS

SMILES | inhibition at 1 µM [%] | inhibition at 10 µM [%]
COC[C@H]1CN[C@H](C)CN1CC(=O)N1CC(C)(C)c2ncc(Cc3cccc(OCCOCCOCCOCCNC[C@@H](C(=O)Nc4ccc5cnccc5c4)c4ccccc4)c3)cc21 [Example 59, (S)-N-(Isoquinolin-6-yl)-1-(3-((1-(2-((2R,5R)-2-(methoxymethyl)-5-methylpiperazin-1-yl)acetyl)-3,3-dimethyl-2,3-dihydro-1H-pyrrolo[3,2-b]pyridin-6-yl)methyl)phenoxy)-14-phenyl-3,6,9-trioxa-12-azapentadecan-15-amide] | ≥ 75 | ≥ 75
COC[C@H]1CN[C@H](C)CN1CC(=O)N1CC(C)(C)c2nc(CN(C)CCOCCOCCN[C@H](Cc3cccc(F)c3)C(=O)Nc3ccc(-c4ccncc4)cc3)c(Cc3ccc(F)cc3)cc21 [Example 30, (R)-12-(3-Fluorobenzyl)-1-(6-(4-fluorobenzyl)-1-(2-((2R,5R)-2-(methoxymethyl)-5-methylpiperazin-1-yl)acetyl)-3,3-dimethyl-2,3-dihydro-1H-pyrrolo[3,2-b]pyridin-5-yl)-2-methyl-N-(4-(pyridin-4-yl)phenyl)-5,8-dioxa-2,11-diazatridecan-13-amide] | < 25 | < 25
COC[C@H]1CN[C@H](C)CN1CC(=O)N1CC(C)(C)c2nc(CN(C)CCOCCOCCOCCOCCOCCNC[C@@H](C(=O)Nc3ccc4cnccc4c3)c3ccccc3)c(Cc3ccc(F)cc3)cc21 [Example 40, (S)-1-(6-(4-Fluorobenzyl)-1-(2-((2R,5R)-2-(methoxymethyl)-5-methylpiperazin-1-yl)acetyl)-3,3-dimethyl-2,3-dihydro-1H-pyrrolo[3,2-b]pyridin-5-yl)-N-(isoquinolin-6-yl)-2-methyl-22-phenyl-5,8,11,14,17-pentaoxa-2,20-diazatricosan-23-amide] | 25 to 50 | 50 to 75
COC[C@H]1CN[C@H](C)CN1CC(=O)N1CC(C)(C)c2nc(CN(C)CCOCCOCCOCCOCCOCCOCCOCCN[C@H](Cc3cccc(F)c3)C(=O)Nc3ccc(-c4ccncc4)cc3)c(Cc3ccc(F)cc3)cc21 [Example 35, (R)-27-(3-Fluorobenzyl)-1-(6-(4-fluorobenzyl)-1-(2-((2R,5R)-2-(methoxymethyl)-5-methylpiperazin-1-yl)acetyl)-3,3-dimethyl-2,3-dihydro-1H-pyrrolo[3,2-b]pyridin-5-yl)-2-methyl-N-(4-(pyridin-4-yl)phenyl)-5,8,11,14,17,20,23-heptaoxa-2,26-diazaoctacosan-28-amide] | 50 to 75 | ≥ 75
C[C@@H]1CN(CC(=O)N2CC(C)(C)c3ncc(Cc4ccc(F)cc4)cc32)[C@@H](CN(C)CCOCCOCCOCCNC[C@@H](C(=O)Nc2ccc3cnccc3c2)c2ccccc2)CN1 [Example 17, (S)-1-((2R,5R)-1-(2-(6-(4-Fluorobenzyl)-3,3-dimethyl-2,3-dihydro-1H-pyrrolo[3,2-b]pyridin-1-yl)-2-oxoethyl)-5-methylpiperazin-2-yl)-N-(isoquinolin-6-yl)-2-methyl-16-phenyl-5,8,11-trioxa-2,14-diazaheptadecan-17-amide] | 25 to 50 | ≥ 75
C[C@@H]1CN(CC(=O)N2CC(C)(C)c3ncc(Cc4ccc(F)cc4)cc32)[C@@H](CN(C)CCOCCN[C@H](C)c2ccc(C(=O)Nc3ccncc3)cc2)CN1 [Example 1, 4-((R)-1-((2-(2-((((2R,5R)-1-(2-(6-(4-Fluorobenzyl)-3,3-dimethyl-2,3-dihydro-1H-pyrrolo[3,2-b]pyridin-1-yl)-2-oxoethyl)-5-methylpiperazin-2-yl)methyl)(methyl)amino)ethoxy)ethyl)amino)ethyl)-N-(pyridin-4-yl)benzamide] | 25 to 50 | ≥ 75
COC[C@H]1CN[C@H](C)CN1CC(=O)N1CC(C)(C)c2nc(CN(C)CCOCCOCCN[C@H](C)c3ccc(C(=O)Nc4ccncc4)cc3)c(Cc3ccc(F)cc3)cc21 [Example 23, 4-((R)-1-(6-(4-Fluorobenzyl)-1-(2-((2R,5R)-2-(methoxymethyl)-5-methylpiperazin-1-yl)acetyl)-3,3-dimethyl-2,3-dihydro-1H-pyrrolo[3,2-b]pyridin-5-yl)-2-methyl-5,8-dioxa-2,11-diazatridecan-12-yl)-N-(pyridin-4-yl)benzamide] | ≥ 75 | ≥ 75
COC[C@H]1CN[C@H](C)CN1CC(=O)N1CC(C)(C)c2nc(CN(C)CCOCCOCCOCCOCCOCCOCCOCCNC[C@@H](C(=O)Nc3ccc4cnccc4c3)c3ccccc3)c(Cc3ccc(F)cc3)cc21 [Example 42, (S)-1-(6-(4-Fluorobenzyl)-1-(2-((2R,5R)-2-(methoxymethyl)-5-methylpiperazin-1-yl)acetyl)-3,3-dimethyl-2,3-dihydro-1H-pyrrolo[3,2-b]pyridin-5-yl)-N-(isoquinolin-6-yl)-2-methyl-28-phenyl-5,8,11,14,17,20,23-heptaoxa-2,26-diazanonacosan-29-amide] | 50 to 75 | ≥ 75
COC[C@H]1CN[C@H](C)CN1CC(=O)N1CC(C)(C)c2ncc(Cc3ccccc3OCCOCCOCCNC[C@@H](C(=O)Nc3ccc4cnccc4c3)c3ccccc3)cc21 [Example 79, (S)-N-(Isoquinolin-6-yl)-3-((2-(2-(2-(2-((1-(2-((2R,5R)-2-(methoxymethyl)-5-methylpiperazin-1-yl)acetyl)-3,3-dimethyl-2,3-dihydro-1H-pyrrolo[3,2-b]pyridin-6-yl)methyl)phenoxy)ethoxy)ethoxy)ethyl)amino)-2-phenylpropanamide] | ≥ 75 | ≥ 75
C[C@@H]1CN(CC(=O)N2CC(C)(C)c3ncc(Cc4ccc(F)cc4)cc32)[C@@H](CN(C)CCOCCOCCOCCOCCOCCOCCNC[C@@H](C(=O)Nc2ccc3cnccc3c2)c2ccccc2)CN1 [Example 20, (S)-1-((2R,5R)-1-(2-(6-(4-Fluorobenzyl)-3,3-dimethyl-2,3-dihydro-1H-pyrrolo[3,2-b]pyridin-1-yl)-2-oxoethyl)-5-methylpiperazin-2-yl)-N-(isoquinolin-6-yl)-2-methyl-25-phenyl-5,8,11,14,17,20-hexaoxa-2,23-diazahexacosan-26-amide] | 50 to 75 | ≥ 75
C[C@@H]1CN(CC(=O)N2CC(C)(C)c3ncc(Cc4ccc(F)cc4)cc32)[C@@H](CN(C)CCOCCOCCOCCOCCOCCOCCOCCN[C@H](C)c2ccc(C(=O)Nc3ccncc3)cc2)CN1 [Example 7, 4-((R)-1-((2R,5R)-1-(2-(6-(4-Fluorobenzyl)-3,3-dimethyl-2,3-dihydro-1H-pyrrolo[3,2-b]pyridin-1-yl)-2-oxoethyl)-5-methylpiperazin-2-yl)-2-methyl-5,8,11,14,17,20,23-heptaoxa-2,26-diazaoctacosan-27-yl)-N-(pyridin-4-yl)benzamide] | 50 to 75 | 50 to 75

Second part, the compound after the results:

inhibition at 1 µM [%] | inhibition at 10 µM [%] | SMILES
50 to 75 | 25 to 50 | COC[C@H]1CN[C@H](C)CN1CC(=O)N1CC(C)(C)c2ncc(Cc3ccccc3OCCOCCOCCOCCOCCOCCOCCOCCNC[C@@H](C(=O)Nc3ccc4cnccc4c3)c3ccccc3)cc21 [Example 84, (S)-N-(Isoquinolin-6-yl)-1-(2-((1-(2-((2R,5R)-2-(methoxymethyl)-5-methylpiperazin-1-yl)acetyl)-3,3-dimethyl-2,3-dihydro-1H-pyrrolo[3,2-b]pyridin-6-yl)methyl)phenoxy)-26-phenyl-3,6,9,12,15,18,21-heptaoxa-24-azaheptacosan-27-amide]
25 to 50 | ≥ 75 | C[C@@H]1CN(CC(=O)N2CC(C)(C)c3ncc(Cc4ccc(F)cc4)cc32)[C@@H](CN(C)CCOCCOCCOCCOCCOCCNC[C@@H](C(=O)Nc2ccc3cnccc3c2)c2ccccc2)CN1 [Example 19, (S)-1-((2R,5R)-1-(2-(6-(4-Fluorobenzyl)-3,3-dimethyl-2,3-dihydro-1H-pyrrolo[3,2-b]pyridin-1-yl)-2-oxoethyl)-5-methylpiperazin-2-yl)-N-(isoquinolin-6-yl)-2-methyl-22-phenyl-5,8,11,14,17-pentaoxa-2,20-diazatricosan-23-amide]
25 to 50 | ≥ 75 | COC[C@H]1CN[C@H](C)CN1CC(=O)N1CC(C)(C)c2ncc(Cc3cccc(OCCOCCN[C@H](C)c4ccc(C(=O)Nc5ccncc5)cc4)c3)cc21 [Example 43, 4-((R)-1-((2-(2-(3-((1-(2-((2R,5R)-2-(Methoxymethyl)-5-methylpiperazin-1-yl)acetyl)-3,3-dimethyl-2,3-dihydro-1H-pyrrolo[3,2-b]pyridin-6-yl)methyl)phenoxy)ethoxy)ethyl)amino)ethyl)-N-(pyridin-4-yl)benzamide]
< 25 | ≥ 75 | COC[C@H]1CN[C@H](C)CN1CC(=O)N1CC(C)(C)c2ncc(Cc3ccccc3OCCOCCOCCN[C@H](Cc3cccc(F)c3)C(=O)Nc3ccc(-c4ccncc4)cc3)cc21 [Example 72, (R)-3-(3-Fluorophenyl)-2-((2-(2-(2-(2-((1-(2-((2R,5R)-2-(methoxymethyl)-5-methylpiperazin-1-yl)acetyl)-3,3-dimethyl-2,3-dihydro-1H-pyrrolo[3,2-b]pyridin-6-yl)methyl)phenoxy)ethoxy)ethoxy)ethyl)amino)-N-(4-(pyridin-4-yl)phenyl)propanamide]
50 to 75 | ≥ 75 | COC[C@H]1CN[C@H](C)CN1CC(=O)N1CC(C)(C)c2ncc(Cc3cccc(OCCOCCOCCOCCOCCOCCNC[C@@H](C(=O)Nc4ccc5cnccc5c4)c4ccccc4)c3)cc21 [Example 61, (S)-N-(Isoquinolin-6-yl)-1-(3-((1-(2-((2R,5R)-2-(methoxymethyl)-5-methylpiperazin-1-yl)acetyl)-3,3-dimethyl-2,3-dihydro-1H-pyrrolo[3,2-b]pyridin-6-yl)methyl)phenoxy)-20-phenyl-3,6,9,12,15-pentaoxa-18-azahenicosan-21-amide]
